Data on 19 compounds can be found in PMC10746280, “Bacterial efflux pump modulators prevent bacterial growth in macrophages and under broth conditions that mimic the host environment” (mBio, 2023).

The structures appear in SMILES notation.

Data set [1] deals with Bacillus subtilis expressing mNeongreen-FtsZ. Put plainly: Membrane voltage disruption assay (mNeongreen-FtsZ delocalization). The format is cell-based. Conditions: 100 µM. The text has this:
We therefore monitored membrane integrity in the presence of EPM analogs by evaluating membrane voltage with mNeongreen-FtsZ ([28][–][30]). The FtsZ protein localizes to the bacterial septum based on membrane potential, and rapid delocalization of fluorescent FtsZ reporters occurs when voltage across the membrane is disrupted ([31], [32]). We monitored mNeongreen-FtsZ localization in a Gram-positive bacterium, Bacillus subtilis, to eliminate the potentially confounding issue of the passage of EPM analogs through the outer membrane at different rates ([24], [33][–][36]).
To determine whether exposure to compound dislodges FtsZ from the cell septum, an overnight culture of Bacillus subtilis grown in LPM at pH 5.5 (LPM 5.5) expressing mNeonGreen-FtsZ (strain DK5092) was exposed to DMSO, CCCP (100 µM) or an EPM analog (150 µM) for 15 or 30 min, as indicated. Bacteria were immobilized on 1% agarose pads made with LPM under a coverslip. To set the threshold value for the FtsZ septal ring, mNeonGreen signal (excitation 488 nm, emission 525 nm) from at least 20 DMSO-treated cells was quantified using a CV1000 confocal microscope with a 100× oil, NA = 1.4 objective. A background-subtracted image was made by subtracting the median intensity from full original images. A signal threshold of ≥400 arbitrary units per pixel was set (Fig. 4B). Then, we manually confirmed that mNeonGreen signal above threshold was at the center of the bacterial rod. We examined 50 cells per sample from at least three biological replicates (≥150 cells per condition). A MATLAB program (https://github.com/Betterton-Lab/FtsZ-Quantification) counted the number of pixels above threshold per cell and averaged this value across all cells for each condition and this value is reported in the graph (Fig. 4C).

For data set [2], the system named is S. Typhimurium SL1344 (sifB::gfp) in RAW 264.7 macrophages. Put plainly: SAFIRE macrophage assay: intracellular bacterial load (GFP signal within macrophages). The format is cell-based, Salmonella enterica serotype Typhimurium. The gist of the method: (§1)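 RAW 264.7 macrophages infected with S. Typhimurium SL1344 sifB::gfp (MOI ~30), gentamicin 40 µg/mL, then compound from 2 h to 18 h post-infection. Confocal imaging with MitoTracker and DAPI; toxicity as adherent MitoTracker-positive macrophage count, bacterial load as GFP+ macrophage area.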

Another data set relates to RAW 264.7 macrophages. Description: SAFIRE macrophage assay: host toxicity (adherent macrophage count, morphology). The data set is classed as cell-based. A digest of the protocol:
as §1

Setting [3] is: 5 uM, 'Toxic' given instead of a score.
[4] abbreviates: 25 uM, 'Toxic' given instead of a score.

Take `N#CC(C#N)=NNc1cccc(Cl)c1` [CCCP, carbonyl cyanide m-chlorophenyl hydrazone, reference compound]: the “effect on FtsZ localization” value in data set [1] is reported as “delocalized FtsZ”.

As for `OC(COc1ccc(Cl)c(Cl)c1)CN1CCC(N2CCOCC2)CC1` (stereo not shown) [CU185], the “5 uM Avg Antibacterial Score” value in data set [2] (setting [3]) is on record as 87. Besides, the “25 uM Avg Antibacterial Score” value in data set [2] (setting [4]) is 76. Besides, the “5 uM Avg Cell # Score” value in the data set on RAW 264.7 macrophages (5 uM) turned out to be 120. The “25 uM Avg Cell # Score” value with RAW 264.7 macrophages (25 uM) is recorded as 125.

For the compound `OC(COc1ccc(Cl)c(Cl)c1)CN1CCN(Cc2cccc3ccccc23)CC1` (stereo not shown) [CU212], in data set [2] (setting [3]), the “5 uM Avg Antibacterial Score” value is recorded as “Toxic”. Further, in data set [2] (setting [4]), the “25 uM Avg Antibacterial Score” value is recorded as “Toxic”. Further, in the data set with RAW 264.7 macrophages (5 uM), the “5 uM Avg Cell # Score” value is 19. Moreover, the “25 uM Avg Cell # Score” value in the data set with RAW 264.7 macrophages (25 uM) stood at 18.

In the case of `CN(C)C(=O)C1CCN(CC(O)COc2ccc(Cl)c(Cl)c2)CC1` (stereo not shown) [CU058], in data set [2] (setting [3]), the “5 uM Avg Antibacterial Score” value worked out at 104. Besides, the “25 uM Avg Antibacterial Score” value in data set [2] (setting [4]) amounted to 72. Also, the “5 uM Avg Cell # Score” value with RAW 264.7 macrophages (5 uM) worked out at 85. In the data set on RAW 264.7 macrophages (25 uM), the “25 uM Avg Cell # Score” value came to 81.

For `OC(COc1ccc(Cl)cc1Cl)CN1CCC(Nc2ncccn2)CC1` (stereo not shown) [CU047], in data set [2] (setting [3]), the “5 uM Avg Antibacterial Score” value is given as 107. For the same compound, the “25 uM Avg Antibacterial Score” value in data set [2] (setting [4]) is reported as 26. Besides, the “5 uM Avg Cell # Score” value with RAW 264.7 macrophages (5 uM) stood at 72. The “25 uM Avg Cell # Score” value in the data set with RAW 264.7 macrophages (25 uM) turned out to be 141.

As for `OC(COc1ccc(F)c(F)c1)CN1CCC(Nc2nccc(C(F)(F)F)n2)CC1` (stereo not shown) [CU169], the “5 uM Avg Antibacterial Score” value in data set [2] (setting [3]) is recorded as 84. Further, the “25 uM Avg Antibacterial Score” value in data set [2] (setting [4]) is given as 6. Further, in the data set on RAW 264.7 macrophages (5 uM), the “5 uM Avg Cell # Score” value was 106. For the same compound, in the data set with RAW 264.7 macrophages (25 uM), the “25 uM Avg Cell # Score” value came to 91.

Consider `O=C(C1CCN(CC(O)COc2ccc(Cl)c(Cl)c2)CC1)N1CCCC1` (stereo not shown) [CU062], for which the “5 uM Avg Antibacterial Score” value in data set [2] (setting [3]) is on record as 95. Also, the “25 uM Avg Antibacterial Score” value in data set [2] (setting [4]) is reported as 48. The “5 uM Avg Cell # Score” value in the data set with RAW 264.7 macrophages (5 uM) stood at 103. For the same compound, the “25 uM Avg Cell # Score” value in the data set with RAW 264.7 macrophages (25 uM) amounted to 145.

Take `CN(CC(O)COc1ccc(F)c(F)c1)C1CCNCC1` (stereo not shown) [CU178]: the “5 uM Avg Antibacterial Score” value in data set [2] (setting [3]) is 72. Also, the “25 uM Avg Antibacterial Score” value in data set [2] (setting [4]) is recorded as 51. In addition, in the data set with RAW 264.7 macrophages (5 uM), the “5 uM Avg Cell # Score” value amounted to 99. In addition, in the data set on RAW 264.7 macrophages (25 uM), the “25 uM Avg Cell # Score” value is 97.

On to `OC(COc1cnsn1)CN1CCC(Nc2nccc(C(F)(F)F)n2)CC1` (stereo not shown) [CU118], for which the “5 uM Avg Antibacterial Score” value in data set [2] (setting [3]) is recorded as 102. Besides, the “25 uM Avg Antibacterial Score” value in data set [2] (setting [4]) came to 80. Further, the “5 uM Avg Cell # Score” value with RAW 264.7 macrophages (5 uM) amounted to 89. In the data set with RAW 264.7 macrophages (25 uM), the “25 uM Avg Cell # Score” value is 124.

For the compound `COc1ccc(OCC(O)CN2CCC(Nc3nccc(C(F)(F)F)n3)CC2)cc1` (stereo not shown) [CU036], the “5 uM Avg Antibacterial Score” value in data set [2] (setting [3]) was 102. The “25 uM Avg Antibacterial Score” value in data set [2] (setting [4]) came to 24. Also, the “5 uM Avg Cell # Score” value with RAW 264.7 macrophages (5 uM) is 54. For the same compound, the “25 uM Avg Cell # Score” value in the data set on RAW 264.7 macrophages (25 uM) was determined as 120.

Turning to `O=C(O)C1CCN(CC(O)COc2ccc(Cl)c(Cl)c2)CC1` (stereo not shown) [CU073], in data set [2] (setting [3]), the “5 uM Avg Antibacterial Score” value is on record as 102. Besides, the “25 uM Avg Antibacterial Score” value in data set [2] (setting [4]) turned out to be 101. In addition, in the data set on RAW 264.7 macrophages (5 uM), the “5 uM Avg Cell # Score” value was 100. Moreover, the “25 uM Avg Cell # Score” value in the data set with RAW 264.7 macrophages (25 uM) amounted to 140.

Take `COC(COc1ccc(Cl)c(Cl)c1)CN1CCC(N)CC1` (stereo not shown) [CU242]: the “5 uM Avg Antibacterial Score” value in data set [2] (5 uM compound, n=1, DMSO solvent control = 98, rifampicin 2 μg/mL = 65) is listed as 28. In addition, the “25 uM Avg Antibacterial Score” value in data set [2] (25 uM compound, n=1, DMSO solvent control = 98, rifampicin 2 μg/mL = 65) was 9. For the same compound, the “5 uM Avg Cell # Score” value in the data set on RAW 264.7 macrophages (5 uM compound, n=1, DMSO solvent control = 100) is reported as 123. The “25 uM Avg Cell # Score” value in the data set on RAW 264.7 macrophages (25 uM compound, n=1, DMSO solvent control = 100) was found to be 109.

On to `O=C1OC(COc2ccc(Cl)c(Cl)c2)CN1C1CCNC1` (stereo not shown) [CU146], for which, in data set [2] (setting [3]), the “5 uM Avg Antibacterial Score” value is on record as 89. For the same compound, the “25 uM Avg Antibacterial Score” value in data set [2] (setting [4]) is reported as 51. In addition, the “5 uM Avg Cell # Score” value with RAW 264.7 macrophages (5 uM) worked out at 95. Besides, in the data set with RAW 264.7 macrophages (25 uM), the “25 uM Avg Cell # Score” value was determined as 117.

`CCN(CC)C(=O)C1CCN(CC(O)COc2ccc(Cl)c(Cl)c2)CC1` (stereo not shown) [CU059]: the “5 uM Avg Antibacterial Score” value in data set [2] (setting [3]) was 97. The “25 uM Avg Antibacterial Score” value in data set [2] (setting [4]) came out at 46. Besides, the “5 uM Avg Cell # Score” value with RAW 264.7 macrophages (5 uM) amounted to 105. The “25 uM Avg Cell # Score” value in the data set on RAW 264.7 macrophages (25 uM) is recorded as 88.

Regarding `OC(COc1ccccc1)CN1CCC(Nc2nccc(C(F)(F)F)n2)CC1` (stereo not shown) [CU034], in data set [2] (setting [3]), the “5 uM Avg Antibacterial Score” value is recorded as 99. In data set [2] (setting [4]), the “25 uM Avg Antibacterial Score” value was “Toxic”. Moreover, the “5 uM Avg Cell # Score” value in the data set with RAW 264.7 macrophages (5 uM) is 86. Also, the “25 uM Avg Cell # Score” value with RAW 264.7 macrophages (25 uM) was 57.

For `OC(COc1ccc(Cl)c(Cl)c1)CN1CCN(C2CCOC2)CC1` (stereo not shown) [CU180], the “5 uM Avg Antibacterial Score” value in data set [2] (setting [3]) worked out at 106. The “25 uM Avg Antibacterial Score” value in data set [2] (setting [4]) came to 82. Moreover, the “5 uM Avg Cell # Score” value with RAW 264.7 macrophages (5 uM) is on record as 96. In addition, the “25 uM Avg Cell # Score” value in the data set on RAW 264.7 macrophages (25 uM) came out at 100.

On to `O=C(CCOc1ccc(Cl)c(Cl)c1)N1CCC(Nc2nccc(C(F)(F)F)n2)C1` (stereo not shown) [CU111], for which, in data set [2] (setting [3]), the “5 uM Avg Antibacterial Score” value stood at 106. In data set [2] (setting [4]), the “25 uM Avg Antibacterial Score” value is on record as 104. In the data set on RAW 264.7 macrophages (5 uM), the “5 uM Avg Cell # Score” value was 86. Besides, in the data set with RAW 264.7 macrophages (25 uM), the “25 uM Avg Cell # Score” value is reported as 47.

On to `CC(C)C(=O)NC1CCN(CC(O)COc2ccc(Cl)c(Cl)c2)C1` (stereo not shown) [CU069], for which the “5 uM Avg Antibacterial Score” value in data set [2] (setting [3]) worked out at 95. For the same compound, in data set [2] (setting [4]), the “25 uM Avg Antibacterial Score” value is 52. For the same compound, in the data set with RAW 264.7 macrophages (5 uM), the “5 uM Avg Cell # Score” value is recorded as 96. Moreover, in the data set on RAW 264.7 macrophages (25 uM), the “25 uM Avg Cell # Score” value is recorded as 94.

With `OC(COc1ccc(Cl)c(Cl)c1)CN1CCN(C2COC2)CC1` (stereo not shown) [CU181], the “5 uM Avg Antibacterial Score” value in data set [2] (setting [3]) is given as 109. In addition, the “25 uM Avg Antibacterial Score” value in data set [2] (setting [4]) came to 94. For the same compound, the “5 uM Avg Cell # Score” value in the data set on RAW 264.7 macrophages (5 uM) came out at 100. The “25 uM Avg Cell # Score” value in the data set on RAW 264.7 macrophages (25 uM) stood at 101.
